Results reported in patent publication US12509454B2, “Thiadiazolyl derivatives” (IDEAYA Biosciences, Inc., priority 2019, dated 2025).

These compounds were tested against Pol theta (1-899) (Homo sapiens (Human), UniProt O75417) (assay: Pol theta ATPase activity, NADH oxidation-coupled enzymatic assay). Details: Pol theta (1-899) 10 nM, ATP, dT50 ssDNA, absorbance 340 nm, 10-point dilution series; read-out: ATPase NADH coupling:Standard Screening:hPolQ IC50.
Assay type: biochemical
Method in brief: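 Pol theta (1-899), 10 nM, preincubated 15 min at RT with 10-point compound series in Tris pH 7.80/KCl/MgCl2 buffer, then given 100 μM ATP plus 300 nM dT50 ssDNA with PK/LDH-coupled NADH oxidation. A340 followed for 30 min; rate slopes fitted with a four-parameter model for IC50.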

Chain of Pol theta (1-899) (O75417 1-899): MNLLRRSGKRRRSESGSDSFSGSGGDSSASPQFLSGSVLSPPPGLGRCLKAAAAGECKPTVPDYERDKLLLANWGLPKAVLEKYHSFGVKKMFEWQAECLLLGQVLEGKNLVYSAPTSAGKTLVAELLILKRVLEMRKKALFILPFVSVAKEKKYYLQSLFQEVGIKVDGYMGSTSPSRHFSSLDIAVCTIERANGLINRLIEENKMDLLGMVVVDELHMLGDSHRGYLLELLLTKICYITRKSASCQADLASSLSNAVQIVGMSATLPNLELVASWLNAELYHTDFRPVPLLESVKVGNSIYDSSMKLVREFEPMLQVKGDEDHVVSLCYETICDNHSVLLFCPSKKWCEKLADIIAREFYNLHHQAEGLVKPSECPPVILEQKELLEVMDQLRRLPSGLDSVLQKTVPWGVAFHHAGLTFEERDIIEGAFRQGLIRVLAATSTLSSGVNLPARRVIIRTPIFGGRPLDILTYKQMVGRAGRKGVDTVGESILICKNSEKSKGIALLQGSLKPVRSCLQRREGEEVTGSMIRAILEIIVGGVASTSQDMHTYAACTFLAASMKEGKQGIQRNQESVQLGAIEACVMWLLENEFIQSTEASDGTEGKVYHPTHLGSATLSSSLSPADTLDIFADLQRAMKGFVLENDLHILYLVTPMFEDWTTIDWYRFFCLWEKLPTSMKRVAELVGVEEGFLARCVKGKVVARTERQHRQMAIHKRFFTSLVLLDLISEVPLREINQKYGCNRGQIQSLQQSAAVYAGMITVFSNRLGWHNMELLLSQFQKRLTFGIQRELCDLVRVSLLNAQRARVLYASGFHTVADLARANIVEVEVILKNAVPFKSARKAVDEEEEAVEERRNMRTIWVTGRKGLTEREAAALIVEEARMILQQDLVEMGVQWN

IC50 [nM]	SMILES
≤ 200	O=C(Nc1nnc(OCc2ccc(Cl)cc2)s1)c1cnccc1-c1ccccc1C(F)(F)F [Example 132, N-(5-((4-chlorobenzyl)oxy)-1,3,4-thiadiazol-2-yl)-4-(2-(trifluoromethyl)phenyl)nicotinamide]
500 to 1000	COc1ccncc1-c1cnccc1C(=O)Nc1nnc(OCc2ccc(Cl)cc2)s1 [Example 133, N-(5-((4-chlorobenzyl)oxy)-1,3,4-thiadiazol-2-yl)-4′-methoxy-[3,3′-bipyridine]-4-carboxamide]
≤ 200	O=C(Nc1nnc(OCc2ccc(Cl)cc2)s1)c1ccncc1-c1ccccc1OC1COC1 [Example 134, N-[5-[(4-chlorophenyl)methoxy]-1,3,4-thiadiazol-2-yl]-3-[2-(oxetan-3-yloxy)phenyl]pyridine-4-carboxamide]
≤ 200	CCc1ccccc1-c1cnccc1C(=O)Nc1nnc(OCc2ccc(Cl)cc2)s1 [Example 135, N-[5-[(4-chlorophenyl)methoxy]-1,3,4-thiadiazol-2-yl]-3-(2-ethylphenyl)pyridine-4-carboxamide]
≤ 200	O=C(Nc1nnc(OCc2ccc(Cl)cc2)s1)c1ccncc1-c1cccc2c1OCCN2 [Example 136, N-[5-[(4-chlorophenyl)methoxy]-1,3,4-thiadiazol-2-yl]-3-(3,4-dihydro-2H-1,4-benzoxazin-8-yl)pyridine-4-carboxamide]
≤ 200	COc1ccccc1-c1cnc(CC#N)cc1C(=O)Nc1nnc(OCc2ccc(Cl)cc2)s1 [Example 137, N-[5-[(4-chlorophenyl)methoxy]-1,3,4-thiadiazol-2-yl]-2-(cyanomethyl)-5-(2-methoxyphenyl)pyridine-4-carboxamide]
≤ 200	COc1ccccc1-c1cc(C)ncc1C(=O)Nc1nnc(OCc2ccc(Cl)cc2)s1 [Example 138, N-[5-[(4-chlorophenyl)methoxy]-1,3,4-thiadiazol-2-yl]-4-(2-methoxyphenyl)-6-methylpyridine-3-carboxamide]
≤ 200	CN1CCOc2c(-c3cnccc3C(=O)Nc3nnc(OCc4ccc(Cl)cc4)s3)cccc21 [Example 139, N-[5-[(4-chlorophenyl)methoxy]-1,3,4-thiadiazol-2-yl]-3-(4-methyl-2,3-dihydro-1,4-benzoxazin-8-yl)pyridine-4-carboxamide]
≤ 200	Cc1n[nH]c(C)c1-c1cnccc1C(=O)Nc1nnc(OCc2ccc(Cl)cc2)s1 [Example 140, N-[5-[(4-chlorophenyl)methoxy]-1,3,4-thiadiazol-2-yl]-3-(3,5-dimethyl-1H-pyrazol-4-yl)pyridine-4-carboxamide]
≤ 200	COc1ccccc1-c1cnccc1C(=O)Nc1nnc(OCc2ccc(C3(C#N)CC3)cc2)s1 [Example 141, N-(5-[[4-(1-cyanocyclopropyl)phenyl]methoxy]-1,3,4-thiadiazol-2-yl)-3-(2-methoxyphenyl)pyridine-4-carboxamide]
≤ 200	O=C(Nc1nnc(OCc2ccc(Cl)cc2)s1)c1ccncc1N1CCCn2nccc21 [Example 142, N-[5-[(4-chlorophenyl)methoxy]-1,3,4-thiadiazol-2-yl]-3-[5H,6H,7H-pyrazolo[1,5-a]pyrimidin-4-yl]pyridine-4-carboxamide]
≤ 200	O=C(Nc1nnc(OCc2ccc(Cl)cc2)s1)c1ccncc1-c1c(F)cccc1OC1COC1 [Example 143, N-(5-((4-chlorobenzyl)oxy)-1,3,4-thiadiazol-2-yl)-3-(2-fluoro-6-(oxetan-3-yloxy)phenyl)isonicotinamide]
≤ 200	C[C@@H]1COC[C@@H](C)N1c1cnccc1C(=O)Nc1nnc(OCc2ccc(Cl)cc2)s1 [Example 144, N-(5-((4-chlorobenzyl)oxy)-1,3,4-thiadiazol-2-yl)-3-((3R,5R)-3,5-dimethylmorpholino)isonicotinamide]
≤ 200	COc1ccccc1-c1cnccc1C(=O)Nc1nnc(OCc2cccc3[nH]cnc23)s1 [Example 145, N-[5-(1H-1,3-benzodiazol-4-ylmethoxy)-1,3,4-thiadiazol-2-yl]-3-(2-methoxyphenyl)pyridine-4-carboxamide]
≤ 200	COc1ccccc1-c1cnccc1C(=O)Nc1nnc(OCc2ccc(Cl)c3c2cnn3C)s1 [Example 146, N-[5-[(7-chloro-1-methylindazol-4-yl)methoxy]-1,3,4-thiadiazol-2-yl]-3-(2-methoxyphenyl)pyridine-4-carboxamide]
≤ 200	O=C(Nc1nnc(OCc2ccc(Cl)cc2)s1)c1cc(C#CCO)ncc1-c1ccccc1OC(F)F [Example 147, N-[5-[(4-chlorophenyl)methoxy]-1,3,4-thiadiazol-2-yl]-5-[2-(difluoromethoxy)phenyl]-2-(3-hydroxyprop-1-yn-1-yl)pyridine-4-carboxamide]
≤ 200	COc1ccccc1-c1cnc(F)cc1C(=O)Nc1nnc(OCc2ccc(Cl)cc2)s1 [Example 148, N-(5-((4-chlorobenzyl)oxy)-1,3,4-thiadiazol-2-yl)-2-fluoro-5-(2-methoxyphenyl)isonicotinamide]

IC50 [nM]	SMILES
≤ 200	COc1ccccc1-n1cncc1C(=O)Nc1nnc(OCc2ccc(C3CC3)cc2)s1 [Example 149, N-(5-((4-cyclopropylbenzyl)oxy)-1,3,4-thiadiazol-2-yl)-1-(2-methoxyphenyl)-1H-imidazole-5-carboxamide]
200 to 500	O=C(Nc1nnc(OCc2ccc(Cl)cc2)s1)c1cccnc1-c1ccccc1Cl [Example 150, N-(5-((4-chlorobenzyl)oxy)-1,3,4-thiadiazol-2-yl)-2-(2-chlorophenyl)nicotinamide]
≤ 200	COc1ccccc1-c1cnc(C#N)cc1C(=O)Nc1nnc(OCc2ccc(Cl)cc2)s1 [Example 151, N-(5-((4-chlorobenzyl)oxy)-1,3,4-thiadiazol-2-yl)-2-cyano-5-(2-methoxyphenyl)isonicotinamide]
≤ 200	COc1ccccc1-c1cc(C(=O)O)ncc1C(=O)Nc1nnc(OCc2ccc(Br)cc2)s1 [Example 152, 5-([5-[(4-bromophenyl)methoxy]-1,3,4-thiadiazol-2-yl]carbamoyl)-4-(2-methoxyphenyl)pyridine-2-carboxylic acid]
≤ 200	COc1ccccc1-c1ccncc1C(=O)Nc1nnc(OCc2ccc(Br)cc2)s1 [Example 153, N-[5-[(4-bromophenyl)methoxy]-1,3,4-thiadiazol-2-yl]-4-(2-methoxyphenyl)pyridine-3-carboxamide]
≤ 200	COc1ccccc1-c1cc(C#N)ncc1C(=O)Nc1nnc(OCCC2CC2)s1 [Example 154, 6-cyano-N-(5-(2-cyclopropylethoxy)-1,3,4-thiadiazol-2-yl)-4-(2-methoxyphenyl)nicotinamide]
≤ 200	COc1cc(F)ccc1-c1ccncc1C(=O)Nc1nnc(OCc2ccc(Cl)cc2)s1 [Example 155, N-[5-[(4-chlorophenyl)methoxy]-1,3,4-thiadiazol-2-yl]-4-(4-fluoro-2-methoxyphenyl)pyridine-3-carboxamide]
≤ 200	COc1ccccc1-c1cc(C(F)(F)F)ncc1C(=O)Nc1nnc(OCc2ccc(Cl)cc2)s1 [Example 156, N-[5-[(4-chlorophenyl)methoxy]-1,3,4-thiadiazol-2-yl]-4-(2-methoxyphenyl)-6-(trifluoromethyl)pyridine-3-carboxamide]
≤ 200	COc1ccccc1-c1cnccc1C(=O)Nc1nnc(OCc2cccc(Cl)c2)s1 [Example 157, N-(5-((3-chlorobenzyl)oxy)-1,3,4-thiadiazol-2-yl)-3-(2-methoxyphenyl)isonicotinamide]
≤ 200	COc1ccccc1-c1cnccc1C(=O)Nc1nnc(OCc2ccc(Cl)c(Cl)c2)s1 [Example 158, N-[5-[(3,4-dichlorophenyl)methoxy]-1,3,4-thiadiazol-2-yl]-3-(2-methoxyphenyl)pyridine-4-carboxamide]
≤ 200	COc1c(C#N)cccc1-c1cnccc1C(=O)Nc1nnc(OCc2ccc(Cl)cc2)s1 [Example 159, N-(5-((4-chlorobenzyl)oxy)-1,3,4-thiadiazol-2-yl)-3-(3-cyano-2-methoxyphenyl)isonicotinamide]
≤ 200	COc1cc(C(=O)Nc2nnc(OCc3ccc(Cl)cc3)s2)c(-c2ccccc2OC)cn1 [Example 160, N-(5-((4-chlorobenzyl)oxy)-1,3,4-thiadiazol-2-yl)-2-methoxy-5-(2-methoxyphenyl)isonicotinamide]
≤ 200	COc1ccccc1-c1cn2ccnc2cc1C(=O)Nc1nnc(OCc2ccc(Cl)cc2)s1 [Example 161, N-(5-((4-chlorobenzyl)oxy)-1,3,4-thiadiazol-2-yl)-6-(2-methoxyphenyl)imidazo[1,2-a]pyridine-7-carboxamide]
≤ 200	Cc1n[nH]cc1-c1cnccc1C(=O)Nc1nnc(OCc2ccc(Cl)cc2)s1 [Example 162, N-(5-((4-chlorobenzyl)oxy)-1,3,4-thiadiazol-2-yl)-3-(3-methyl-1H-pyrazol-4-yl)isonicotinamide]
≤ 200	COc1ccccc1-c1cc(CCC(N)=O)ncc1C(=O)Nc1nnc(OCc2ccc(Cl)cc2)s1 [Example 163, 6-(3-amino-3-oxopropyl)-N-(5-((4-chlorobenzyl)oxy)-1,3,4-thiadiazol-2-yl)-4-(2-methoxyphenyl)nicotinamide]
≤ 200	COc1ccccc1-c1cc(CCC#N)ncc1C(=O)Nc1nnc(OCc2ccc(Cl)cc2)s1 [Example 164, N-[5-[(4-chlorophenyl)methoxy]-1,3,4-thiadiazol-2-yl]-6-(2-cyanoethyl)-4-(2-methoxyphenyl)pyridine-3-carboxamide]
≤ 200	COc1ccccc1-c1cc(CCO)ncc1C(=O)Nc1nnc(OCc2ccc(Cl)cc2)s1 [Example 166, N-(5-((4-chlorobenzyl)oxy)-1,3,4-thiadiazol-2-yl)-6-(2-hydroxyethyl)-4-(2-methoxyphenyl)nicotinamide]

SMILES	IC50 [nM]
O=C(Nc1nnc(OCc2ccc(Cl)cc2)s1)c1ccncc1-c1ccccc1OC1CC(O)C1 (centres unmarked) [Example 165, N-(5-((4-chlorobenzyl)oxy)-1,3,4-thiadiazol-2-yl)-3-(2-(3-hydroxycyclobutoxy)phenyl)isonicotinamide]	≤ 200
